Test results: patent US12419936B2, “Collagen peptide-based medicament compositions and devices and methods of production and use thereof” (SUSTAIN HOLDINGS, LLC, priority 2019, dated 2025)

How the values were obtained:
[1] = test system: ARPE19 cells; assay: Adherence of RPE cells to MMP-1-digested (cut) collagen plates treated with CMP; assay type: cell-based, human; conditions: 100 μM CMP on cut collagen; 19 hours
Experimental: (§1) Plates were then rinsed with culture medium, and ARPE-19 cells were plated uniformly on plates having one of three surface coating conditions: (1) intact collagen; (2) cut collagen; and (3) cut collagen+CMP. Plates were then incubated at 37° C. for 19 hours, and then examined for cell adherence by phase contrast microscopy.

[2] = test system: dorsal root ganglia (DRG) neurons; assay: Neurite outgrowth in dorsal root ganglion neurons on cut collagen plates treated with CMP; assay type: cell-based, rat; conditions: 100 μM CMP on cut collagen; 48 hours
Experimental: as §1, with “DRG neuronal” for “ARPE-19”, “48” for “19”, “morphology and neurite outgrowth” for “cell adherence”, “inverted brightfield” for “phase contrast”

[3] = cited from earlier work; for melting temperature of a triple helix: Sakakibara et al. 1973
[4] = test system: corneal epithelium in wounded mouse eyes; assay: In vivo healing of mouse corneal epithelium, wound size by fluorescein staining; conditions: 100 ng/ml EGF, positive control; 16 hours post-treatment
Text: To examine the possible therapeutic effects of CMPs and CMP-TC conjugates of the invention, studies were designed to test certain CMPs and CMP-TC conjugates in an in vivo setting—the healing of the corneal epithelium in wounded mouse eyes. Female mice (8-week-old C57BL/6; seven mice per sample tested) were anesthetized, and corneas of the mouse eyes were wounded with a 1.5 mm superficial epithelial wound of sufficient depth to expose the anterior stroma thereby damaging and exposing the collagen matrix. […] Following wounding, corneas were treated with 25 nM (about 3 mg/kg) CMPs or CMP-TC conjugates, in aqueous PBS. Negative control mice were treated with vehicle only (PBS), and positive control mice were treated with 100 ng/ml epidermal growth factor (EGF). Wound size at various time points over 48 hours was examined by fluorescein staining (see Carlson et al., id.), and documented via fluorescent photomicrography, and quantified using Image J software (see Rush, J. S. et al., Investig. Ophthalmol. Visual Sci. 57 (14): 5864-5871 (2016); Rush, J. S. et al., Investig. Ophthalmol. Visual Sci. 55 (8): 4691-4699 (2014)).

Substance	adherence of RPE cells, quantitative, normalized to cut collagen [1]	melting temperature of a triple helix [3] [°C]	further results
Pro-Flp-Gly-Pro-Flp-Gly-Pro-Cys-Gly-Pro-Flp-Gly-Pro-Flp-Gly-Pro-Flp-Gly-Pro-Flp-Gly [CMP D]	significantly increased adhesion		length of the longest neurite normalized to cut collagen [2]: even exceeded that observed with intact collagen
(ProHypGly)10		58	rate at which chains fold into a triple helix ([3]; relative to (ProProGly)10, Chopra and Ananthanarayanan 1982): substantially greater
Flp-Hyp-Gly-Flp-Hyp-Gly-Flp-Hyp-Gly-Flp-Hyp-Gly-Flp-Hyp-Gly-Flp-Hyp-Gly-Flp-Hyp-Gly [CMP B]	significantly increased adhesion		adherence of RPE cells in photomicrographs vs. cut collagen plates [1]: increased adherence
epidermal growth factor [EGF, positive control in the corneal wound model, 100 ng/ml]			wound healing in mouse cornea and corneal stroma (diameter and intensity of fluorescein fluorescence) [4]: lower level of healing
(ProProGly)10		24	
